These are literature values, as cited in US7872030B2, “Use of 2-[5-(4-fluorophenyl)-3-pyridylmethylaminomethyl]-chromane and its physiologically acceptable salts” (Merck Patent GmbH, priority 2001, dated 2011).

The subject of this data set is advanced Parkinson patients. The following applies: cited from earlier work.

Take `O=C1CC2(CCCC2)CC(=O)N1CCCCN1CCN(c2ncccn2)CC1` [buspirone]: the anti-dyskinetic properties result is on record as “moderate anti-dyskinetic properties”.
